Experimental data reported in US20240199624A1, “COMPOUNDS, COMPOSITIONS, AND METHODS” (CHDI Foundation, Inc., priority 2022, published 2024).

Legend:
human MutSbeta [1] = target: T1, human MutSbeta (Homo sapiens, UniProt P20585+P43246); assay: P33 SPA 1.1; type: biochemical; settings: Table 5A; enzyme first added to compounds, then ATP
T1 construct: Msh2(1-934), Gene ID NP_000242.1; Msh3(1-1137), Gene ID J04810.1
Method: (§1) P33 SPA: Enzyme human MutSbeta (Msh2(1-934), Gene ID NP_000242.1, Msh3(1-1137), Gene ID J04810.1) and 22 bp biotin-labeled DNA containing a GT-mismatch (purchased from Curia Global, TOP 5′-[…]-3′; BOT 3′-AGTAGCTAGGC - - - CGAAGTCTACC-5′-Biotin) were pre-incubated at equimolar concentration for 15 min at room temperature (“RT”) in assay buffer (25 mM HEPES pH=7.5, 150 mM KCl, 2 mM MgCl2, 2 mM GSH, 0.01% Tween-20). ATP (10 μL, 2× final concentration of γ-[^33P]-ATP (final 0.1 nM; Hartmann Analytic, FF-301) and cold ATP (final 2 μM)) was added to compounds (400 nL spotted as concentration response in 100% DMSO into wells of an OptiPlate) and pre-incubated for 30 min at RT. Then, enzyme with DNA was added (10 μL, 2× final concentration of 7 nM) and incubated for 60 min at 37° C. in a total volume of 20 μL per well. Decay of [^33P] with a half-life of 25.4 days was corrected by increasing the concentration of the labelled nucleotide with the appropriate factor; all steps with radioactive ATP were conducted behind appropriate shielding. Then, 20 μL of a 1:2 mix of ammonium molybdate (20 mg/mL Ammonium molybdate in 2.4 M HCl) and SPA beads (ProteinA SPA beads from Perkin Elmer Cat #RPNQ0019 at 7.5 mg/mL+1% azide) was added per well and incubated at RT for 2 min. Then, 40 μL of 7 M CsCl and 0.1 M citrate was added per well and incubated for 20 h at RT before measuring on the MicroBeta (top read mode, 1 min per well). For full plate processing, all reagents were transferred with a pipettor (Selma, CyBio) apart from the final reagent (CsCl+citrate) which was added with a dispenser (MultiFlo, BioTek). Data analysis during assay development was done with Prism GraphPad.
P33 SPA 11: For the SPA 1.1 assay, the addition of reagents was reversed, i.e. enzyme was first added to the compounds and pre-incubated followed by ATP addition; thus, the assay was aligned with ADP Glo 1.1 reagent addition order. The assay was repeated under similar conditions, and the results are shown below in Table 5B. It is contemplated the solubility of the compounds and/or varying test occasions may account for variability of assay results.

human MutSbeta [2] = target: T1, human MutSbeta; assay: P33 SPA; type: biochemical; settings: ATP added to compounds first, then enzyme with DNA; 2 μM ATP, 7 nM enzyme, 60 min 37° C.
Method: as §1

[3] = P33 SPA counter assay (absence of enzyme); settings: interference with detection system
Method: P33 SPA counter assay: This assay was used in the absence of enzyme to determine whether the test compound interferes with the detection system. Otherwise, the same protocol and assay buffer as in the main SPA assay were applied (25 mM HEPES pH=7.5, 150 mM KCl, 2 mM MgCl2, 2 mM GSH, 0.01% Tween-20) and instead of enzyme addition, assay buffer was added. Hydrolysis of substrate (γ-[^33P]-ATP, 0.1 nM; Hartmann Analytic, FF-301; and cold ATP, 10 μM) to a similar level as under enzymatic conditions was achieved by incubation at 50° C. for 4 days. Decay of [^33P] with a half-life of 25.4 days was corrected by increasing the concentration of the labelled nucleotide with the appropriate factor; all steps with radioactive ATP were conducted behind appropriate shielding. After addition of pre-treated ATP substrate (10 μL) to the compounds and addition of buffer (10 μL, instead of enzyme), 20 μL of a 1:2 mix of ammonium molybdate (20 mg/mL Ammonium molybdate in 2.4M HCl) and SPA beads (ProteinA SPA beads from Perkin Elmer Cat #RPNQ0019 at 7.5 mg/mL+1% azide) was added per well and incubated at RT for 2 min. Then, 40 μL of 7 M CsCl and 0.1 M citrate was added per well and incubated for 1 h at room temperature before measuring on the MicroBeta (top read mode, 1 min per well). For full plate processing, all reagents were transferred with a pipettor (Selma, CyBio) apart from the final reagent (CsCl+citrate) which was added with a dispenser (MultiFlo, BioTek). Data analysis during assay development was done with Prism GraphPad, and IC50 fitting for whole compound plates was done with the in-house software Aplus.

T1 sequence (P43246 whole entry): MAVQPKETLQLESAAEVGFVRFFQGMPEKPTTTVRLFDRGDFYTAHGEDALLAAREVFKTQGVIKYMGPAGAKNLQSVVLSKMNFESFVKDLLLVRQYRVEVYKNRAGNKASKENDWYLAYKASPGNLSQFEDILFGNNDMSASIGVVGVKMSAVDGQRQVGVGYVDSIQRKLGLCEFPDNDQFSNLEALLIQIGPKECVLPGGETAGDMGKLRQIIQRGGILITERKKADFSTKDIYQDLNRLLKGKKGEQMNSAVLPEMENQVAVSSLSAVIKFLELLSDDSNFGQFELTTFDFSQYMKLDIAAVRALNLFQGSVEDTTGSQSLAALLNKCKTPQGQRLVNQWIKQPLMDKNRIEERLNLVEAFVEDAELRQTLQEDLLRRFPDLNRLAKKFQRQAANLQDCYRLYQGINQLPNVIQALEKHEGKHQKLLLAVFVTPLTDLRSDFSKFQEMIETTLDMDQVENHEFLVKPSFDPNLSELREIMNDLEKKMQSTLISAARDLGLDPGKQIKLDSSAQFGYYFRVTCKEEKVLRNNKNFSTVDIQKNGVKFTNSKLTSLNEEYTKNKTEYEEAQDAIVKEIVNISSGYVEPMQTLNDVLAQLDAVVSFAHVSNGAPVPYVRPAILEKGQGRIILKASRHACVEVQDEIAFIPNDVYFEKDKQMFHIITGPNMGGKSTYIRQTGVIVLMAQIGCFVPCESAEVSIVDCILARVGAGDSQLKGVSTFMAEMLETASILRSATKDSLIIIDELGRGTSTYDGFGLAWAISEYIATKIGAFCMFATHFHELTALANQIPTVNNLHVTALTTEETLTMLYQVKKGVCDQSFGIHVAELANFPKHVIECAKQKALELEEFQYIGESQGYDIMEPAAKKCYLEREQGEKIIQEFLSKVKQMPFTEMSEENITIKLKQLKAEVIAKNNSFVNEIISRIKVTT
T1 sequence (P20585 whole entry): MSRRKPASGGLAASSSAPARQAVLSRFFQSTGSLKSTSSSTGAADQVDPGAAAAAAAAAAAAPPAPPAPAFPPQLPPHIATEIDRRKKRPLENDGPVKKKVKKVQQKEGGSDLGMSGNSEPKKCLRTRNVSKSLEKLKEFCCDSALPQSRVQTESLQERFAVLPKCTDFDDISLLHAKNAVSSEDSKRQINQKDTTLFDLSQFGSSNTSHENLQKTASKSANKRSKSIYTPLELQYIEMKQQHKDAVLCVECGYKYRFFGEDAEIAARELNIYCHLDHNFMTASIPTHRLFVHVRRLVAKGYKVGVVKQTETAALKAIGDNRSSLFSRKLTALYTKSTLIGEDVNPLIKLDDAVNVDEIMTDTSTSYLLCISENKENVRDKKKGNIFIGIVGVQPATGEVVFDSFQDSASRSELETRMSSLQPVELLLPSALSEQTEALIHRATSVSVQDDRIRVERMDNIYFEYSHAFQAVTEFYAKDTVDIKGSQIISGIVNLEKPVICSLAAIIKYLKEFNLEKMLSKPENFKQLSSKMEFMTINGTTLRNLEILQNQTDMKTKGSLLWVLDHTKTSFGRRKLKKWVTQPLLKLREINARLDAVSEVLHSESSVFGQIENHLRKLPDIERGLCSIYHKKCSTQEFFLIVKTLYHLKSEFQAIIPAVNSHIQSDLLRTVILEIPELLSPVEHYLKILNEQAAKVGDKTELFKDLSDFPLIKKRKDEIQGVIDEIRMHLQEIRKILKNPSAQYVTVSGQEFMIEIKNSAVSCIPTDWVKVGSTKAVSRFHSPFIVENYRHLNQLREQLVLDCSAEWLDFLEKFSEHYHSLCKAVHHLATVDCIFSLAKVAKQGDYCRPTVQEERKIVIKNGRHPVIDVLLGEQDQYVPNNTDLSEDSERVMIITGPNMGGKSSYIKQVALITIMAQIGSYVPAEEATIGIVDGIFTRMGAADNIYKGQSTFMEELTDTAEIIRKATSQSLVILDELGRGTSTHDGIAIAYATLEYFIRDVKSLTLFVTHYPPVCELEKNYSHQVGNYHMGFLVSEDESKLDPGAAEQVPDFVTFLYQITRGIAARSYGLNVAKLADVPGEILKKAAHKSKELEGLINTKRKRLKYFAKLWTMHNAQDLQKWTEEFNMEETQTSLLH

SMILES | IC50 (human MutSbeta [1]) | IC50 (human MutSbeta [2]) | IC50 [3]
Cc1ccc(Nc2nc(N3CCN(C)CC3)nc3nccnc23)cc1C [Compound 2, N-(3,4-dimethylphenyl)-2-(4-methylpiperazin-1-yl)pteridin-4-amine] | 55.9 µM | 28.6 µM | > 200 µM
CCN1CCN(c2nc(Nc3ccc(Cl)cc3)c3nccnc3n2)CC1 [Compound 4, N-(4-Chlorophenyl)-2-(4-ethylpiperazin-1-yl)pteridin-4-amine] | 40.5 µM | 23.8 µM | > 200 µM
